Where “and” joins values, the source holds several entries; their conditions need not be identical. Identical values can stand only once.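 Five concentrations, 48 hours, 96-well plates. GI50: concentration for 50% inhibition of growth. TGI is the concentration that stops growth completely.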
Tests used:
Assay in all cases: inhibition of tumour cell growth, NCI panel, 48 h
SF-539 CNS = tested on: SF-539 CNS
COLO 205 colon = tested on: COLO 205 colon
UO-31 renal = tested on: UO-31 renal
OVCAR-8 ovarian = tested on: OVCAR-8 ovarian
UACC-62 melanoma = tested on: UACC-62 melanoma
MDA-MB-435 = tested on: MDA-MB-435
SNB-75 CNS = tested on: SNB-75 CNS
KM12 colon = tested on: KM12 colon
SR leukemia = tested on: SR leukemia
MDA-N = tested on: MDA-N

SMILES	TGI (SF-539 CNS) [µM]	TGI (COLO 205 colon) [µM]	TGI (UO-31 renal) [µM]	TGI (OVCAR-8 ovarian) [µM]	TGI (UACC-62 melanoma) [µM]	TGI (MDA-MB-435) [µM]	TGI (SNB-75 CNS) [µM]	TGI (KM12 colon) [µM]	TGI (SR leukemia) [µM]	GI50 (SR leukemia)	TGI (MDA-N) [µM]	GI50 (SF-539 CNS) [µM]	GI50 (MDA-MB-435) [µM]	GI50 (SNB-75 CNS) [µM]	GI50 (KM12 colon) [µM]	GI50 (COLO 205 colon) [µM]	GI50 (UO-31 renal) [µM]	GI50 (OVCAR-8 ovarian) [µM]	GI50 (UACC-62 melanoma) [µM]
O=C(CSc1nc2ccc(I)cc2c(=O)n1Cc1ccccc1)Nc1ccc(Br)cc1	6.1	> 100	0.382	36.2	> 100	> 100	36.6	> 100	27.4										
CCCCCCCCCC[C@@H](O)[C@@H]1CC[C@@H]([C@@H]2CC[C@@H]([C@@H](O)CCCCCCCCCCC(O)CC3=CC(C)OC3=O)O2)O1 (some centres not stated)	> 10	> 10	> 10	> 10	> 10		> 10	> 10	6.45										
Nc1nc(N)c2ncn(CC(CO)CC(c3ccccc3)P(=O)(O)O)c2n1 (configuration not stated)	> 100	> 100	> 100	> 100	> 100		> 100	> 100	> 100	> 100 µM and 35 µM									
CC(Nc1cc(Cl)cc(Cl)c1)c1ccncc1 (configuration not stated)	40.8	29.8	27.3	43		47.5	63.1				45.6								
CN(C)Cc1cc(C(=O)/C=C/c2ccc(/C=C/C(=O)c3cc(CN(C)C)c(O)c(CN(C)C)c3)cc2)cc(CN(C)C)c1O	78.8	28.2	> 100	> 100	94.3	79.7	> 100	56.3	> 100										
CC(=O)C(=C(I)I)c1ccccc1	38.9	28.9	33.8	39.6	51.4	29.9		41.4	35.5		39.9								
CN(C)Cc1cc(C(=O)O)cc(CN(C)C)c1O		> 100	> 100	> 100	> 100	> 100	> 100	> 100	> 100		> 100								
Fc1cccc2nc(-c3ccccc3)cc(OCc3ccccc3)c12		> 100	> 100	> 100	> 100	> 100	> 100	> 100	> 100		> 100								
C=C[C@H]1CN2CC[C@H]1C[C@@H]2[C@@H](O)c1ccnc2ccccc12	> 100	> 100	> 100	> 100	> 100	> 100	> 100	> 100			> 100								
COc1cc2c(cc1OCCCC(=O)Nc1cc(C(=O)Nc3cc(C(=O)NCCCN(C)C)n(C)n3)n(C)n1)N=CC1CCCN1C2=O (configuration not stated)	44.1	26.3	30.4	53.2	57.3	39		> 100	26.7		31.6								
O=C(c1cccs1)N(C(=O)N1CCC(c2ccccc2)CC1)c1ccccc1	> 100	72.2	76.9	> 100	> 100	> 100		50.9			> 100								
CC(=O)O[C@H]1/C(=C/c2ccc(N(C)C)cc2)C[C@H]2[C@@H]3CC=C4C[C@@H](N5CCCC5)CC[C@]4(C)[C@H]3CC[C@]12C	> 100	> 100	> 100	> 100	> 100		> 100		> 100										
CN(C)c1ccc(C(c2ccc(N(C)C)cc2)c2ccc([N+](=O)[O-])cc2)cc1	> 100	> 100	> 100	> 100	> 100	> 100		> 100	> 100		> 100								
NCCCCCCNc1cc(-c2cccc(OC(F)(F)F)c2)nc2ccc(N3CCCC3)cc12	3					3.01	2.94	3.38	1.73	0.349 µM		1.59	1.64	1.57	1.79				
COc1ccc2nc3c([N+](=O)[O-])ccc4c3c(c2c1)NCCN4C	2.62	2.54	2.82	14.9	2.88	2.4		23.2	> 100		2.21								
CC1(C)CCOC(=O)C(Cl)CC1Cl (configuration not stated)	> 100	> 100		> 100	> 100	> 100		> 100	> 100		> 100								
Cc1nnc2c3c(-c4ccccc4)c(-c4ccccc4)oc3nc(N(C)C)n12	> 100	> 100	> 100	> 100	> 100	> 100	72.4	> 100	67.2										
NNC(=O)c1ccccc1NC(=O)/C(=C/c1ccccc1)NC(=O)c1ccccc1	> 100	> 100	> 100	> 100	> 100	> 100	> 100	> 100			> 100								
Cc1ccc2c3c1O[C@H]1c4nc5ccccc5cc4C[C@@]4(O)[C@@H](C2)N(CC2CC2)CC[C@]314	19.4	19.3	22.2	22.6	23.5	23.5		35.6	50.9		25.4								
COc1ccc(-c2cn3ccnc3c(-c3ccc4ncn(C5CCCCC5)c4c3)n2)cc1		14.4	> 100	> 100	> 100	> 100	> 100	> 100	> 100	0.89 µM			0.312	0.733	1.35	2.22	1.35	3.16	0.434
O=C1CSC2(CCN(CCCN3c4ccccc4Sc4ccc(Cl)cc43)CC2)N1	26.4	22.5	19.5	23.8	23.7	23.5	20.1	19.1			23.6								
C=C1CCCCCCCCCCC1S(=O)c1ccccc1 (configuration not stated)	37.2	57.3	39.6		> 100	59.3			64.8		> 100								
